{
  "source": "patent US9956242B2",
  "about": "“Pharmaceutical composition for prevention or treatment of cognitive function disorders comprising spinosin” (MINISTRY OF FOOD AND DRUG SAFETY, priority 2011, dated 2018)",
  "key": {"[1]": {"test_system": "mice with memory impairment induced by scopolamine", "settings": "for latency time increase compared to control group 2 (scopolamine only): present experiment; for Learning latency time: learning trial; for Present Experiment latency time: 24 hours after learning"}, "[2]": {"test_system": "mice with memory impairment induced by scopolamine", "test": "Passive avoidance test 2 (zizyphi spinosi semen extract), scopolamine-induced memory impairment", "type": "in vivo, ICR mice", "settings": "control group 1, donepezil 5 mg/Kg, scopolamine 1 mg/Kg i.p.", "procedure": "(§1) 6-week-old ICR mice (Orient Bio Inc., Korea), weighing about 26 to 28 g, were fed with water and food freely available for 5 days in an environment, where the temperature was about 23±2° C., the humidity was about 55±10%, and the light-dark cycle was 12 hours (Animal Laboratory at the College of Pharmacy in Kyung Hee university), and used in the experiments.\nAfter 30 minutes, learning about the passive avoidance test apparatus was performed on the mice in drug administration groups 1 to 4 and control groups 1 to 3, respectively. Specifically, the mice were placed in the first space kept light, and after a seek time of about 20 seconds, the guillotine door was opened, and the latency time taken for the mice to move to the second space kept dark was measured.\nAfter 24 hours since the learning was completed, the present experiment was performed on drug administration groups 1 to 4 and control groups 1 to 3, respectively. The latency tire taken for all four feet of the mouse to enter the dark space after the guillotine door was opened from the seek time of 10 seconds was measured up to 300 seconds. […]"}, "[3]": {"test_system": "mice with memory impairment induced by scopolamine", "test": "Y-maze test, scopolamine-induced memory impairment", "type": "in vivo, ICR mice", "settings": "control group 1, donepezil 5 mg/Kg; scopolamine 1 mg/Kg i.p.", "procedure": "as §1\nA Y-maze was prepared for the experiment. The Y-maze had three arms, in which each arm was 42 cm in length, 3 cm in width, and 12 cm in height, the angle formed by three arms was 120 degrees, and the Y-maze was made of black polyvinyl resin.\n160 mg of the zizyphi spinosi semen extract of Example 1 was dissolved in 4 mL of 10% Tween 80 (Polyoxyethylene sorbitan monooleate: Sigma, U.S.A.) and administered to drug administration groups 1 and 2 at doses of 100 mg/Kg and 200 mg/Kg. […]\nAfter 30 minutes, the mice in drug administration groups 1 and 2 and control groups 1 to 3 were carefully placed on one of three arms of the Y-maze, divided into A, B, and C, respectively, and allowed to freely move, and then the arms where the mice entered were recorded. At this time, only the case where the mouse’ tail fully entered the arm was recorded as the arm where the experimental animal entered, and the case where the mouse entered the same arm was also recorded. […]"}, "[4]": {"test_system": "mice with memory impairment induced by scopolamine", "test": "Morris water maze test, scopolamine-induced memory impairment", "type": "in vivo, ICR mice", "settings": "control group 1, donepezil 5 mg/Kg, scopolamine 1 mg/Kg i.p.", "procedure": "as §1\nA Morris water maze test apparatus was prepared for the experiment. Four labels such as star, square, triangle, and circle were put at regular intervals on a circular pool of 90 cm in diameter and 45 cm in height, and a platform of 29 cm in height was positioned below the star. Water was filled up to 0.5 cm from the platform (water temperature: 21±1° C.) and became cloudy with pigment such that the platform was not visible from the surface of the water.\n160 mg of the zizyphi spinosi semen extract of Example 1 was dissolved in 4 mL of 10% Tween 80 (Polyoxyethylene sorbitan monooleate: Sigma, U.S.A.) and administered to drug administration groups 1 and 2 at doses of 100 mg/Kg and 200 mg/Kg. Meanwhile, donepezil (Sigma-Aldrich Chemistry Co.) was administered to control group 1 at a dose of 5 mg/Kg, and 10% Tween 80 was administered to control groups 2 and 3 at a dose of 0.15 mL.\nAfter 30 minutes, the time taken for the mice, put down in one section of the pool, in drug administration groups 1 and 2 and control groups 1 to 3 to reach the platform was measured for 60 seconds. After 30 minutes, the time taken for the mice, repositioned to the original position, to reach the platform was measured until 60 seconds. The above-described process was repeated 4 times, and the average values were obtained. The experiment was performed in the same manner as on the first day while administering the drugs for 4 days, except that the position where the mice were first put down was changed."}, "[5]": {"settings": "control group 1, donepezil 5 mg/Kg, scopolamine 1 mg/Kg i.p."}},
  "note": "Where two headings read alike, the source gives them in different places.",
  "data": [
    {"smiles": "COc1cc2oc(-c3ccc(O)cc3)cc(=O)c2c(O)c1[C@@H]1O[C@H](CO)[C@@H](O)[C@H](O)[C@H]1O[C@@H]1O[C@H](CO)[C@@H](O)[C@H](O)[C@H]1O", "note": "[spinosin, 6-(2-O-beta-D-Glocopyranosyl-beta-D-glucopyranosyl)-5-hydroxy-2-(4-hydroxyphenyl)-7-methoxy-4H-1-benzopyran-4-one]", "values": [
      {"measurement": "latency time increase compared to control group 2 (scopolamine only)", "setting": "[1]; 2.5 mg/Kg", "value": "about 20 seconds"},
      {"measurement": "Learning latency time", "setting": "[1]; 2.5 mg/Kg, scopolamine 1 mg/Kg i.p. 30 min later", "value": "25.88 ± 13.72", "unit": "s"},
      {"measurement": "Present Experiment latency time", "setting": "[1]; 2.5 mg/Kg, scopolamine 1 mg/Kg i.p., measured up to 300 seconds", "value": "59.13 ± 46.88", "unit": "s"},
      {"measurement": "latency time increase compared to control group 2 (scopolamine only)", "setting": "[1]; 5 mg/Kg", "value": "about 2.5 times"},
      {"measurement": "Learning latency time", "setting": "[1]; 5 mg/Kg, scopolamine 1 mg/Kg i.p. 30 min later", "value": "29.38 ± 18.17", "unit": "s"},
      {"measurement": "Present Experiment latency time", "setting": "[1]; 5 mg/Kg, scopolamine 1 mg/Kg i.p., measured up to 300 seconds", "value": "107.1 ± 91.70", "unit": "s"},
      {"measurement": "latency time increase compared to control group 2 (scopolamine only)", "setting": "[1]; 10 mg/Kg", "value": "about 3 times"},
      {"measurement": "Learning latency time", "setting": "[1]; 10 mg/Kg, scopolamine 1 mg/Kg i.p. 30 min later", "value": "20.50 ± 9.196", "unit": "s"},
      {"measurement": "Present Experiment latency time", "setting": "[1]; 10 mg/Kg, scopolamine 1 mg/Kg i.p., measured up to 300 seconds", "value": "131.3 ± 69.94", "unit": "s"},
      {"measurement": "latency time increase compared to control group 2 (scopolamine only)", "setting": "[1]; 20 mg/Kg", "value": "about 3.5 times"},
      {"measurement": "Learning latency time", "setting": "[1]; 20 mg/Kg, scopolamine 1 mg/Kg i.p. 30 min later", "value": "36.00 ± 16.45", "unit": "s"},
      {"measurement": "Present Experiment latency time", "setting": "[1]; 20 mg/Kg, scopolamine 1 mg/Kg i.p., measured up to 300 seconds", "value": "146.0 ± 83.53", "unit": "s"},
      {"measurement": "latency time compared to control group 2 (in words)", "setting": "[1]; drug administration groups 1 to 4, 2.5 to 20 mg/Kg", "value": "significantly increased"},
      {"measurement": "memory and learning ability compared to control group 1 (donepezil) (in words)", "setting": "[1]; drug administration groups 3 and 4, 10 and 20 mg/Kg", "value": "improved to an extent similar to that in control group 1"}
    ]},
    {"smiles": "COc1cc2c(cc1OC)C(=O)C(CC1CCN(Cc3ccccc3)CC1)C2", "note": "(stereo not drawn) [donepezil]", "values": [
      {"measurement": "Present Experiment latency time", "setting": "[2]; 24 hours after learning", "value": "140.5 ± 25.47", "unit": "s"},
      {"measurement": "Learning latency time", "setting": "[2]; learning trial", "value": "17.25 ± 5.365", "unit": "s"},
      {"measurement": "Alternation behavior (%)", "setting": "[3]", "value": "65.71 ± 10.19", "unit": "%"},
      {"measurement": "Total entry (total number of arm entries)", "setting": "[3]", "value": "34.75 ± 7.265"},
      {"measurement": "Present Experiment latency time", "setting": "[1]; [5]", "value": "151.9 ± 37.24", "unit": "s"},
      {"measurement": "Learning latency time", "setting": "[1]; [5]", "value": "25.13 ± 13.68", "unit": "s"},
      {"measurement": "Time to reach the platform", "setting": "[4]; 1st day", "value": "59.34 ± 2.055", "unit": "s"},
      {"measurement": "Time to reach the platform", "setting": "[4]; 2nd day", "value": "48.75 ± 14.98", "unit": "s"},
      {"measurement": "Time to reach the platform", "setting": "[4]; 3rd day", "value": "42.80 ± 15.16", "unit": "s"},
      {"measurement": "Time to reach the platform", "setting": "[4]; 4th day", "value": "34.35 ± 13.80", "unit": "s"}
    ]}
  ]
}
